The source made the active and inactive calls. The rule behind the calls is not given here.
Tests used:
Heme [1] = assay: Binding affinity to heme assessed as equilibrium binding constant by UV-visible spectrophotometry
Heme [2] = assay: Inhibition of heme-mediated bovine serum albumin oxidation assessed as protein carbonyl formation after 1 hr in presence of H2O2 at pH 7.4
Heme [3] = assay: Inhibition of heme-mediated bovine serum albumin degradation at 100 uM after 1 hr by gel electrophoresis in presence of H2O2 at pH 7.4

| Structure (SMILES) | Ka (Heme [1]) | IC50 (Heme [2]) | inhibition (Heme [3]) |
| --- | --- | --- | --- |
| O=C(O)c1cccc2c(=O)c3ccccc3[nH]c12 | 3.8 ×10⁴ /M | 43 µM |  |
| O=c1c2ccccc2[nH]c2ccccc12 [ACRIDONE] | 2.4 ×10⁴ /M | 55 µM |  |
| COc1ccc2[nH]c3ccccc3c(=O)c2c1 | 2.7 ×10⁴ /M | 44 µM |  |

The remaining molecules from weak to strong by IC50 (Heme [2]), led by results:

| Ka (Heme [1]) | IC50 (Heme [2]) | inhibition (Heme [3]) | Structure (SMILES) |
| --- | --- | --- | --- |
| 3.9 ×10⁴ /M | 42 µM | Active | COc1cc2c(c(O)c1OC)c(=O)c1ccccc1n2C [ARBORININE] |
| 4.3 ×10⁴ /M | 41 µM | Active | O=c1c2ccccc2[nH]c2cc([N+](=O)[O-])ccc12 |
| 4.6 ×10⁴ /M | 36 µM | Active | O=c1c2ccccc2[nH]c2cc(Cl)ccc12 |
